Measured values reported in patent publication EP1094724B1, “USE OF A PHENOL OXIDISING ENZYME IN THE TREATMENT OF TOBACCO” (priority 1998, dated 2000).

Experiments:
[1] = biological target: T1, Trametes villosa laccase (TvL) (Trametes villosa, UniProt Q99044); test: Laccase TvL treatment of tobacco extract, HPLC analysis of phenolic compounds (peak area); assay type: biochemical; details: for % Remaining (peak area) after various treatment times: intensive, submerse aeration; for % Remaining (peak area) after 75 minutes / % Remaining (peak area) after 240 minutes: 1.6 µg/ml TvL, ambient temperature (approximately 20°C), surface aeration
T1 construct: purchased Novo Nordisk A/S
T1 sequence (Q99044 22-520): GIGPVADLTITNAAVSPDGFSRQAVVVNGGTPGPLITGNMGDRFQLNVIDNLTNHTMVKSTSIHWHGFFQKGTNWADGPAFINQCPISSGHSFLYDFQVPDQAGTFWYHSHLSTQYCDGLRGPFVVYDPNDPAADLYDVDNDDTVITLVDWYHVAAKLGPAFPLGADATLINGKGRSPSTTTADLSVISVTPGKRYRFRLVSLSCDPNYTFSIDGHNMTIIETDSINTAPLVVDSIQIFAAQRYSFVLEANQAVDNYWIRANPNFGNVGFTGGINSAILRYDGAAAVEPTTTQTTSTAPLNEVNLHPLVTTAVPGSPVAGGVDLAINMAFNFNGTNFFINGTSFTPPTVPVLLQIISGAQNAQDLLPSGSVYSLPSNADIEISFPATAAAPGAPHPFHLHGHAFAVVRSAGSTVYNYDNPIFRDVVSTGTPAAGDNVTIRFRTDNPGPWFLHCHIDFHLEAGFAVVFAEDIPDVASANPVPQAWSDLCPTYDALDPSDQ
Procedure: The content of phenolic compounds is analysed by HPLC according to the procedure described below: • Liquid chromatographic system: E.g. Shimadzu SCL-6B System Controller, and two LC-6A Liquid Chromatograph (pumps) or Waters model 600 E • Injector: Shimadzu SIL 6B Autoinjector or Waters 715 Ultra Wisp. UV detector: Shimadzu SPD-6A Photodiode Array UV-VIS detector or Waters Model 481 • Software: CLASS LC10 / CLASS-MXA or Maxima 820 • Column: Supelcosil™ LC-18 25 cm x 4.6 mm (Supelco, #5-8298) or µ Bondapack C198 stainless steel column, 30 cm x 4 mm i.d., 10 µm particle size. • Guard column: none or Guard-Pak from Waters packed with the same material. • Temperature: Ambient • Mobile phase flow: 1.3 ml/min • Injection volume: 20µl • Wavelength: 350 nm • Eluent: Binary gradient (linear) mixture of A: KH2PO4 (28.4 g in 2000 ml de-mineralised water) and B: methanol (please see table 1 and figure 1). The eluent is filtered through a 0.45 µm filter and degassed before use.
Prior to HPLC analysis, the samples were filtered through a 0.45 µm filter or smaller, e.g. a sterile Sartorius Minisart 0.45 µm filter (#16555) or a Millipore Millex-GS 0.22 µm (#SBGS 0 25 SB) to remove the haze/precipitate normally formed during enzyme treatment. Normally, no dilution of the extract/sample was made before HPLC analysis.
For qualitative and semi-quantitative measurements, each of the standards was dissolved in 96% ethanol, and then mixed in a ratio and at a concentration which was within the range in the tobacco extract. For semi-quantification of the phenolic compounds in the tobacco extract, and as a measure of development in concentration of the various compounds contained in the extract, decrease in peak area relative to the peak area before addition of enzyme was used. As a measure of overall efficiency of the process, degree of reduction in total peak area of all peaks (not only the major ones) in the HPLC chromatogram with retention time Rt>3 min was used (named: "All peaks").
Unless otherwise indicated, the tobacco was extracted at a laboratory scale with water according to the following procedure: 1000 ml demineralised water is heated to 45°C. 30 g tobacco (approx. 25 g d.m.) is added and the mixture stirred by a magnetic bar and occasionally with a stick. After 15 minutes the tobacco residue is separated from the tobacco extract by vacuum filtration (Whatman glass micro fibre GF/F 11 cm). The filtered extract is then vacuum filtered at least once more or until it is completely clear. Yield was around 900 ml tobacco extract. […] No buffer was thus included in any of the trials. D.m. content of the extract was approximately 2.1%.
Tobacco extract (typically 50-100 ml) was poured into a glass beaker and a magnetic bar was added. No pH adjustments were made, and no buffer was added. The tobacco extract was heated to and controlled at 55°C during the entire enzyme treatment by means of a heating plate and a thermostat. Intensive submerse aeration was applied by blowing atmospheric air into the extract by means of a metal sinter (metal suction filter normally used for HPLC). The enzyme in question (TvL or PpL) was added to the desired concentration. Shortly after addition of laccase, the colour of the tobacco extract turned dark brown to black, and with time the liquor became turbid and a precipitate formed. The liquor was sampled with intervals for HPLC analysis.
Enzyme treatment: Surface aeration was used. TvL enzyme was added to the tobacco extract to a concentration of approximately 1.6 µg/ml. […] HPLC chromatograms of the tobacco extract before, during, and after enzyme treatment as well as chromatograms of the mixture of HPLC standards are shown in figure 6, 7, ,8, and 9.
Enzyme treatment: pH of the extract was adjusted with H2SO4 or NaOH to pH 4, pH 5, pH 6, or pH 7. The extract was kept at ambient temperature (approximately 20°C) during the entire enzyme treatment. Surface aeration was used. […]

[2] = biological target: T2, laccase derived from Trametes villosa, TvL (Trametes villosa, UniProt Q99044); test: Effect of laccase on tobacco constituents, UV/Vis spectra before and after treatment (Example 1); assay type: biochemical; details: 9 mM Na-acetate buffer pH 5.0; 4.8% Ethanol; 0.025 mg/ml of tobacco constituent; 0.016 mg/ml laccase; spectra 190-700 nm every 20 seconds for 5 minutes
T2 construct: purchased Novo Nordisk A/S
T2 sequence (Q99044 22-520): T1 sequence (Q99044 22-520)
Procedure: Tobacco constituents: Nicotine, Chlorogenic acid, Rutin and Scopoletin. Enzyme: Purified laccase derived from Trametes villosa, TvL. Apparatus: HP8452 UV/Vis diode array spectrophotometer, 1 cm quarts cuvette. Buffer: Sodium acetate (Merck)
10 mM acetate buffer was prepared from sodium acetate adjusted to pH 5.0 with sulphuric acid. Stock solution of 0.50 mg/ml in 96% ethanol was prepared of nicotine, chlorogenic acid, rutin, and scopoletin. A stock solution of 0.31 mg enzyme protein/ml of laccase in de-mineralised water was prepared. The HP diode array spectrophotometer was operated as per the manufacturer's instructions. A 1 cm quartz cuvette was used. As a blank was used 950µl buffer mixed with 50µl 96% ethanol. In a 1 cm quart cuvette was mixed 900µl 10 mM acetate buffer and 50µl of the stock solution of the compound in question. A spectrum of the "native" compound was recorded in the range 190-700 nm. 50µl of TvL stock solution was added and carefully mixed, and spectra in the range 190-700 nm were recorded every 20 seconds for 5 minutes.

C[C@@H]1O[C@@H](OC[C@H]2O[C@@H](Oc3c(-c4ccc(O)c(O)c4)oc4cc(O)cc(O)c4c3=O)[C@H](O)[C@@H](O)[C@@H]2O)[C@H](O)[C@H](O)[C@H]1O [R, rutin]
% Remaining (peak area) after various treatment times ([1]; 40 Min, approximately 1.6 µg/ml TvL at 55°C and pH 5.4): 20% | % Remaining (peak area) after various treatment times ([1]; 40 Min, approximately 7.8µg/ml TvL at 55°C and pH 5.4): 0% | % Remaining (peak area) after various treatment times ([1]; 80 Min, approximately 1.6 µg/ml TvL at 55°C and pH 5.4): 0% | % Remaining (peak area) after various treatment times ([1]; 120 Min, approximately 1.6 µg/ml TvL at 55°C and pH 5.4): 0% | % Remaining (peak area) after 75 minutes ([1]; pH 4): 44% | % Remaining (peak area) after 240 minutes ([1]; pH 4): 0% | % Remaining (peak area) after 75 minutes ([1]; pH 5): 29% | % Remaining (peak area) after 240 minutes ([1]; pH 5): 0% | % Remaining (peak area) after 75 minutes ([1]; pH 6): 14% | % Remaining (peak area) after 240 minutes ([1]; pH 6): 0% | % Remaining (peak area) after 75 minutes ([1]; pH 7): 87% | % Remaining (peak area) after 240 minutes ([1]; pH 7): 63%

CN1CCCC1c1cccnc1 (stereo not shown) [Nicotine]
spectral changes (peak position and peak relative height) [2]: No spectral changes
